{"source": "patent US10875895B2", "about": "“Antibacterial cell-penetrating peptides” (Purdue Research Foundation, priority 2018, dated 2020)", "key": {"S. aureus RN 4220": {"test_system": "S. aureus RN 4220", "assay": "MIC, broth microdilution (CLSI)", "assay_type": "cell-based", "settings": "Staphylococcus aureus, RN4220", "procedure": "(§1) The minimum inhibitory concentration (MIC) of the peptides (in uM/ml) and control antibiotics (vancomycin and gentamicin) in μg/mL, were determined using the broth microdilution method according to the guidelines of the Clinical and Laboratory Standards Institute (CLSI) guidelines. See CLSI. 2007. Methods for dilution antimicrobial susceptibility tests for bacteria that grow aerobically; approved standard M7-A7. CLSI, Wayne, Pa."}, "S. flexneri 1a": {"test_system": "S. flexneri 1a", "assay": "MIC, broth microdilution (CLSI)", "assay_type": "cell-based", "settings": "Shigella flexneri, enteric pathogens", "procedure": "as §1"}, "E. faecium 700221": {"test_system": "E. faecium 700221", "assay": "microbe, parasite or virus in culture", "settings": "Enterococcus faecium"}, "S. aureus NRS 384": {"test_system": "S. aureus NRS 384", "assay": "microbe, parasite or virus in culture", "settings": "Staphylococcus aureus, NRS384"}, "K. pneumoniae 1706": {"test_system": "K. pneumoniae 1706", "assay": "microbe, parasite or virus in culture", "settings": "Klebsiella pneumoniae"}, "K. pneumonia NR 41920": {"test_system": "K. pneumonia NR 41920", "assay": "microbe, parasite or virus in culture", "settings": "Klebsiella pneumoniae, NR41920"}, "K. pneumonia NR 41928": {"test_system": "K. pneumonia NR 41928", "assay": "microbe, parasite or virus in culture", "settings": "Klebsiella pneumoniae, NR41928"}, "A. baumannii 1605": {"test_system": "A. baumannii 1605", "assay": "microbe, parasite or virus in culture", "settings": "Acinetobacter baumannii"}, "P. aeruginosa 50573": {"test_system": "P. aeruginosa 50573", "assay": "microbe, parasite or virus in culture", "settings": "Pseudomonas aeruginosa"}, "E. cloacae 1134": {"test_system": "E. cloacae 1134", "assay": "microbe, parasite or virus in culture", "settings": "Enterobacter cloacae"}, "S. aureus NRS 383": {"test_system": "S. aureus NRS 383", "assay": "microbe, parasite or virus in culture", "settings": "Staphylococcus aureus, NRS383"}, "S. aureus NRS 382": {"test_system": "S. aureus NRS 382", "assay": "microbe, parasite or virus in culture", "settings": "Staphylococcus aureus, NRS382"}, "S. aureus ATCC 6538": {"test_system": "S. aureus ATCC 6538", "assay": "microbe, parasite or virus in culture", "settings": "Staphylococcus aureus, ATCC6538"}, "S. epidermidis NRS 101": {"test_system": "S. epidermidis NRS 101", "assay": "microbe, parasite or virus in culture", "settings": "Staphylococcus epidermidis, NRS101"}, "VRSA 5": {"test_system": "VRSA 5", "assay": "microbe, parasite or virus in culture", "settings": "Staphylococcus aureus"}, "VRSA 10": {"test_system": "VRSA 10", "assay": "microbe, parasite or virus in culture", "settings": "Staphylococcus aureus"}, "P. aeruginosa 48982": {"test_system": "P. aeruginosa 48982", "assay": "microbe, parasite or virus in culture", "settings": "Pseudomonas aeruginosa"}, "P. aeruginosa 31040": {"test_system": "P. aeruginosa 31040", "assay": "microbe, parasite or virus in culture", "settings": "Pseudomonas aeruginosa"}, "P. aeruginosa 31041": {"test_system": "P. aeruginosa 31041", "assay": "microbe, parasite or virus in culture", "settings": "Pseudomonas aeruginosa"}, "A. baumannii 1747": {"test_system": "A. baumannii 1747", "assay": "microbe, parasite or virus in culture", "settings": "Acinetobacter baumannii"}, "A baumannii 19606": {"test_system": "A baumannii 19606", "assay": "microbe, parasite or virus in culture", "settings": "Acinetobacter baumannii"}, "L. monocytogenes 191112": {"test_system": "L. monocytogenes 191112", "assay": "microbe, parasite or virus in culture", "settings": "Listeria monocytogenes"}, "S. enteritidis": {"test_system": "S. enteritidis", "assay": "microbe, parasite or virus in culture", "settings": "Salmonella enterica"}, "E. coli 21922": {"test_system": "E. coli 21922", "assay": "microbe, parasite or virus in culture", "settings": "Escherichia coli"}, "S. typhimurium LT2": {"test_system": "S. typhimurium LT2", "assay": "microbe, parasite or virus in culture", "settings": "Salmonella enterica"}}}
{"smiles": "CN[C@H](CC(C)C)C(=O)N[C@H]1C(=O)N[C@@H](CC(N)=O)C(=O)N[C@H]2C(=O)N[C@H]3C(=O)N[C@H](C(=O)N[C@H](C(=O)O)c4cc(O)cc(O)c4-c4cc3ccc4O)[C@H](O)c3ccc(c(Cl)c3)Oc3cc2cc(c3O[C@@H]2O[C@H](CO)[C@@H](O)[C@H](O)[C@H]2O[C@H]2C[C@](C)(N)[C@H](O)[C@H](C)O2)Oc2ccc(cc2Cl)[C@H]1O", "note": "[Vancomycin, vancomycin]", "values": [{"measurement": "MIC", "setting": "S. aureus RN 4220", "value": 0.5, "unit": "µM"}, {"measurement": "MIC", "setting": "S. flexneri 1a", "value": "> 32", "unit": "µM"}, {"measurement": "MIC", "setting": "E. faecium 700221", "value": "> 32", "unit": "µM"}, {"measurement": "MIC", "setting": "S. aureus NRS 384", "value": 0.5, "unit": "µM"}, {"measurement": "MIC", "setting": "K. pneumoniae 1706", "value": "> 32", "unit": "µM"}, {"measurement": "MIC", "setting": "K. pneumonia NR 41920", "value": "> 32", "unit": "µM"}, {"measurement": "MIC", "setting": "K. pneumonia NR 41928", "value": "> 32", "unit": "µM"}, {"measurement": "MIC", "setting": "A. baumannii 1605", "value": 8, "unit": "µM"}, {"measurement": "MIC", "setting": "P. aeruginosa 50573", "value": "> 32", "unit": "µM"}, {"measurement": "MIC", "setting": "E. cloacae 1134", "value": "> 32", "unit": "µM"}, {"measurement": "MIC", "setting": "S. aureus NRS 383", "value": 4, "unit": "µM"}, {"measurement": "MIC", "setting": "S. aureus NRS 382", "value": 1, "unit": "µM"}, {"measurement": "MIC", "setting": "S. aureus ATCC 6538", "value": 0.5, "unit": "µM"}, {"measurement": "MIC", "setting": "S. epidermidis NRS 101", "value": 2, "unit": "µM"}, {"measurement": "MIC", "setting": "VRSA 5", "value": 4, "unit": "µM"}, {"measurement": "MIC", "setting": "VRSA 10", "value": "> 32", "unit": "µM"}, {"measurement": "MIC", "setting": "P. aeruginosa 48982", "value": "> 32", "unit": "µM"}, {"measurement": "MIC", "setting": "P. aeruginosa 31040", "value": "> 32", "unit": "µM"}, {"measurement": "MIC", "setting": "P. aeruginosa 31041", "value": "> 32", "unit": "µM"}, {"measurement": "MIC", "setting": "A. baumannii 1747", "value": "> 32", "unit": "µM"}, {"measurement": "MIC", "setting": "A baumannii 19606", "value": 32, "unit": "µM"}, {"measurement": "MIC", "setting": "L. monocytogenes 191112", "value": 1, "unit": "µM"}, {"measurement": "MIC", "setting": "S. enteritidis", "value": "> 32", "unit": "µM"}, {"measurement": "MIC", "setting": "E. coli 21922", "value": "> 32", "unit": "µM"}, {"measurement": "MIC", "setting": "S. typhimurium LT2", "value": "> 32", "unit": "µM"}]}
